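Following 48 hours of exposure in 96-well plates, responses at five concentrations were used to interpolate endpoints linearly. Abbreviation: GI50, concentration required for 50% inhibition of growth. Definition used: TGI = concentration required for complete inhibition of growth.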
Assays:
Test in all cases: NCI-60 cell line screen, 48 h
[1] = test system: NCI-H23 lung
[2] = test system: EKVX NSCLC
[3] = test system: IGROV1 ovarian
[4] = test system: SNB-19 CNS
[5] = test system: SNB-75 CNS
[6] = test system: OVCAR-8 ovarian
[7] = test system: M14 melanoma
[8] = test system: MALME-3M melanoma
[9] = test system: ACHN renal
[10] = test system: SF-539 CNS
[11] = test system: SF-268 CNS
[12] = test system: OVCAR-4 ovarian
[13] = test system: HCT-116 colon
[14] = test system: SK-MEL-28 melanoma
[15] = test system: T-47D breast
[16] = test system: CCRF-CEM leukemia
[17] = test system: TK-10 renal
[18] = test system: OVCAR-3 ovarian
[19] = test system: HT29 colon
[20] = test system: UACC-62 melanoma
[21] = test system: SK-MEL-5 melanoma
[22] = test system: SN12C renal
[23] = test system: SF-295 CNS
[24] = test system: PC-3 prostate
[25] = test system: SR leukemia
[26] = test system: NCI-H226 lung
[27] = test system: HL-60(TB) leukemia
[28] = test system: UACC-257 melanoma
[29] = test system: NCI-H522 lung

Cc1cc2cc3cc(C)c(N)cc3[n+](C)c2cc1N
TGI [1]: 5.11 µM | GI50 [2]: 1.36 µM | TGI [2]: 14.1 µM | GI50 [3]: 2.66 µM | TGI [3]: 15.3 µM | GI50 [4]: 1.13 µM | TGI [4]: 12.4 µM | GI50 [5]: 1.75 µM | TGI [5]: 14.4 µM | GI50 [6]: 2.26 µM | TGI [6]: 5.88 µM | GI50 [7]: 1.8 µM | TGI [7]: 4.82 µM | GI50 [8]: 2.38 µM | TGI [8]: 6.86 µM | GI50 [9]: 1.95 µM | TGI [9]: 8.27 µM | GI50 [10]: 2.79 µM | TGI [10]: 7.75 µM | GI50 [11]: 2.03 µM | TGI [11]: 6.98 µM | GI50 [12]: 1.52 µM | TGI [12]: 8.78 µM | GI50 [13]: 1.15 µM | TGI [13]: 4.66 µM | GI50 [14]: 1.98 µM | TGI [14]: 4.63 µM | GI50 [15]: 1.06 µM | TGI [15]: 5.44 µM | GI50 [16]: 1.36 µM | TGI [16]: 17.5 µM | GI50 [17]: 4.06 µM | TGI [17]: 12.7 µM | GI50 [18]: 1.55 µM | TGI [18]: 5.66 µM | GI50 [19]: 1.41 µM | TGI [19]: 6 µM | GI50 [20]: 1.41 µM | TGI [20]: 3.2 µM | GI50 [21]: 0.762 µM | TGI [21]: 2.08 µM | GI50 [22]: 0.334 µM | TGI [22]: 10.2 µM | GI50 [23]: 1.56 µM | TGI [23]: 11.4 µM | GI50 [24]: 1.7 µM | TGI [24]: 10.3 µM | GI50 [25]: 1.99 µM | TGI [25]: 8.17 µM | GI50 [26]: 1.17 µM | TGI [26]: 4.7 µM | GI50 [27]: 2.31 µM | TGI [27]: 7.74 µM | GI50 [28]: 1.05 µM | TGI [28]: 7.5 µM | GI50 [29]: 3.24 µM | TGI [29]: 9.31 µM
